In patent publication US8258125B2, “HDL-boosting combination therapy complexes” (priority 2008, dated 2012):
“Also recorded” adds a separate entry of the source. Where two headings read alike, the source gives them in different places.

Columns and labels:
[1] = system: Syrian Golden hamsters (F1B strain); experiment: Lipid profile in Syrian Golden hamsters on hypercholesterolemic diet, combo drugs vs Crestor; type: in vivo; details: for effective doses found in this study: in combination, mg/70 kg man
Procedure: Crestor is a new synthetic statin and considered “superstatin” because of its effectiveness at low doses. In clinical studies, Crestor is now found to be the new gold standard among the statins: a 5 mg Crestor dose is equivalent to 20 mg Lipitor, 40 mg Zocor, 80 mg Mevacor or Pravachol. Thus, the drug combination of Compound I and Compound II was compared with Crestor. The animal model was Syrian Golden hamsters (F1B strain, BioBreeders, Fitchburg Mass.). The animals approximately 8-10 weeks of age were fed a non-purified chow-based hypercholesterolemic diet (HCD) containing 10% coconut oil and 0.1% cholesterol by weight for 2 weeks prior to initiation of the experimental treatments, and remain on this diet for the remainder of the study. Compounds I and II were administered by oral gavage (0.2 mL), once a day for 14 days. At day 14, blood samples were obtained after an overnight fast.

[2] = system: Rattus norvegicus, outbred Sprague Dawley; details: combination, rat 14 days, mg/70 kg man
Procedure: Age range at initiation of study was 8-14. […] Quarantine/acclimation was one week. Animals were randomized to groups based on weight. Number per cage was 2-3. Environmental conditions: Conventional microisolator caging. Room temperature was maintained between 19 and 23° C. Relative humidify was maintained at 55-80%. The light/dark cycle was maintained on a 12 hour cycle. Animals were exposed to the test substance daily for 14 days (2 weeks); and the doses were administered by gavage.
Gross necropsy was performed in the animals in the study. […] Collected tissues were placed in formalin overnight and then sectioned and cassetted the following day.
Blood samples were collected by cardiac puncture, 24 hours after the last treatment, as part of the necropsy protocol. Parameters examined include hematocrit (HCT), hemoglobin (Hgb), total erythrocyte count (RBC), total white cell count (WBC), differential count, and platelet estimate; calculated mean corpuscular volume (MCV), mean corpuscular hemoglobin (MCH), and mean corpuscular hemoglobin concentration (MCHC).
Also, at 16-18 hours after the last treatment, animals were placed in metabolic cages and urine was collected (just prior to necropsy). The urine samples were tested for presence of myoglobin.
Clinical Chemistry. Blood samples were collected by cardiac puncture, 24 hours after the last treatment, as part of the necropsy protocol. […]

[3] = system: Golden Syrian hamster; experiment: Evaluation of antilipidemic property in hamster animal model (2-week daily oral gavage); type: in vivo; details: for LDL-C reduced by: 8-160 mg range; for raising HDL-C (in words): monotherapy; for reducing LDL-C by: repeat experiment, 5-20 mg dose range
Description: Evaluation of antilipidemic property in animal. Golden Syrian hamster, 8-wk old (85-100 g) (Bio®F1B, Bio Breeders, Inc., Watertown, Mass.) was the animal model chosen for this study because of its similarities with humans in lipoprotein metabolism and atherosclerosis Moreover, the hamster has plasma cholesteryl ester transfer protein (CETP) similar to humans. Dietary fat saturation affects apolipoprotein gene expression and high-density lipoprotein size distribution in golden Syrian hamsters. The animals housed four per cage were fed […] Supreme Fortified Hamster diet ([…] Products, Inc. Chilton, Wis.), with one part ratio of Heath High Energy suet (Heath Mfg., Cooperville, Mich.); water ad libitum. The animals were fed this diet for 1 week, and then given the drug treatment for a 2-week duration. Drugs were administered by daily oral gavage using 4:6 PEG/Cremaphore suspension vehicle for the water-insoluble drugs (e.g., atorvastatin, lovastatin, simvastatin, and the fibrates); the water-soluble drugs (dihydroxy-acid salts, pravastatin) were dissolved in water. Equivalent doses, based on a 70 kg person, were administered in the hamster. […] Thus, the calculated final dose for a 100-gm hamster is 0.143 mg as well ([…] X a factor of “10”), formulated in a 0.25 ml solution for oral gavage administration. […] Body weights were recorded prior to drug administration and every other day during the test duration. At termination, blood was collected from anesthetized hamsters and the serum is separated by centrifugation. Total serum cholesterol was assayed using the Hitachi Diagnostics enzymatic kit for the determination of total cholesterol, LDL cholesterol, HDL cholesterol, and triglyceride (Analysis performed by: Lipid Analysis, Inc., Springfield, Ill.).

[4] = background description; cited from earlier work
[5] = Water solubility; type: physicochemical
[6] = Equivalent Dose 8 mg (per 70 kg man), oral gavage 2 weeks, serum
[7] = Equivalent Dose 160 mg (per 70 kg man), oral gavage 2 weeks, serum
[8] = repeat comparison, Equivalent Dose 5.0 mg
[9] = repeat comparison, Equivalent Dose 10.0 mg
[10] = repeat comparison, Equivalent Dose 20.0 mg
[11] = compared with the Compound I and II combination

Row | Compound | % Decrease On: HDL-C ([3]; Equivalent Dose 8 mg) | % Decrease On: LDL-C ([3]; Equivalent Dose 8 mg) | % Decrease On: Triglyceride ([3]; Equivalent Dose 8 mg) | % Decrease On: Total Cholesterol [3, 6] | % Decrease On: HDL-C ([3]; Equivalent Dose 160 mg) | % Decrease On: LDL-C ([3]; Equivalent Dose 160 mg) | % Decrease On: Triglyceride ([3]; Equivalent Dose 160 mg) | % Decrease On: Total Cholesterol [3, 7] | raising HDL-C (in words) [3] | also measured
1 | CC(C)(Oc1ccc(CCNC(=O)c2ccc(Cl)cc2)cc1)C(=O)[O-].[Na+] [Compound III] |  |  |  |  |  |  |  |  |  | effective doses found in this study [1]: 30 to 40 mg; maximum tolerated dose (MTD) [2]: 10,000 mg
2 | CC[C@H](C)C(=O)O[C@H]1C[C@@H](C)C=C2C=C[C@H](C)[C@H](CC[C@@H](O)C[C@@H](O)CC(=O)[O-])[C@H]21.[Na+] [Compound I] | 25.2% | 41.4% | 28.6% | 30.3% | 32.2% | 29.2% | 33.7% | 40.7% | not effective in raising HDL-C | effective doses found in this study [1]: 1 to 3 mg; LDL-C reduced by [3]: 41.4-59.2%; effective at a dose as low as ([3]; equivalent dose, antilipidemic activity): 5 mg; % Decrease On: HDL-C [3, 8]: 5.6%; % Decrease On: LDL-C [3, 8]: 14.7%; % Decrease On: Total Cholesterol [3, 8]: 14.8%; % Decrease On: Triglyceride [3, 8]: 4.5%; % Decrease On: HDL-C [3, 9]: 12.4%; % Decrease On: LDL-C [3, 9]: 23.7%; % Decrease On: Total Cholesterol [3, 9]: 12.6%; % Decrease On: Triglyceride [3, 9]: 6.8%; % Decrease On: HDL-C [3, 10]: 20.7%; % Decrease On: LDL-C [3, 10]: 22.4%; % Decrease On: Total Cholesterol [3, 10]: 20.9%; % Decrease On: Triglyceride [3, 10]: 23.6%; reducing LDL-C by [3]: 22.4-23.7%
3 | CC(C)c1nc(N(C)S(C)(=O)=O)nc(-c2ccc(F)cc2)c1/C=C/[C@@H](O)C[C@@H](O)CC(=O)O [Crestor] |  |  |  |  |  |  |  |  |  | HDL level (in words) [1, 11]: did not boost HDL; controlling cholesterol and LDL (in words) [1, 11]: less effective in controlling cholesterol and LDL
4 | CC(C)c1c(C(=O)Nc2ccccc2)c(-c2ccccc2)c(-c2ccc(F)cc2)n1CC[C@@H](O)C[C@@H](O)CC(=O)O [Lipitor, Atorvastatin] | 33.3% | 28.5% | 35.8% | 28.6% | 30.7% | 54.4% | 53.0% | 43.0% | not effective in raising HDL-C; also recorded: did not show any increase in HDL-C | LDL-C reduced by [3]: 28.5-54.4%; % Decrease On: HDL-C [3, 9]: 20.7%; % Decrease On: LDL-C [3, 9]: 17.9%; % Decrease On: Total Cholesterol [3, 9]: 18.2%; % Decrease On: Triglyceride [3, 9]: 5.0%; % Decrease On: HDL-C [3, 10]: 15.9%; % Decrease On: LDL-C [3, 10]: 8.9%; % Decrease On: Total Cholesterol [3, 10]: 12.3%; % Decrease On: Triglyceride [3, 10]: 4.8%; reducing LDL-C by [3]: 8.9-17.9%
5 | CC[C@H](C)C(=O)O[C@H]1C[C@@H](C)C=C2C=C[C@H](C)[C@H](CC[C@@H]3C[C@@H](O)CC(=O)O3)[C@H]21 [Mevacor, Lovastatin] | 20.4% | 22.4% | 21.8% | 19.4% | 26.7% | 54.4% | 34.4% | 36.6% | did not show any increase in HDL-C | solubility in water [4]: insoluble in water; solubility in water [5]: not water-soluble
6 | CC[C@H](C)C(=O)O[C@H]1C[C@H](O)C=C2C=C[C@H](C)[C@H](CC[C@@H](O)C[C@@H](O)CC(=O)O)[C@H]21 [Pravachol, Pravastatin] | 20.4% | 29.9% | 18.8% | 22.4% | 17.3% | 33.3% | 25.9% | 23.0% | did not show any increase in HDL-C | 
7 | CCC(C)(C)C(=O)O[C@H]1C[C@@H](C)C=C2C=C[C@H](C)[C@H](CC[C@@H]3C[C@@H](O)CC(=O)O3)[C@H]21 [Zocor, Simvastatin] | 12.6% | 5.4% | 23.4% | 9.5% | 30.7% | 54.4% | 43.0% | 40.7% |  | 
8 | O=C(O)c1cccnc1 [niacin, 3-pyridine carboxylic acid] |  |  |  |  |  |  |  |  |  | solubility in water [5]: not soluble in water
